Measured values as given in patent US20240391862A1, “(1,4,5-TRISUBSTITUTED-1H-PYRAZOL-3-YL)OXY-2-ALKOXY ALKYL ACIDS AND THEIR DERIVATIVES, THEIR SALTS AND THEIR USE AS HERBICIDAL AGENTS” (Bayer AKtiengesellschaft, priority 2021, published 2024).

Experiments:
Experiment in all cases: Post-emergence herbicidal effect, greenhouse pot test
SETVI = type: in vivo, Setaria viridis; details: for pest or weed control at 80 g/ha / pest or weed control at 320 g/ha / pest or weed control at 20 g/ha: Setaria viridis, 504 h, read-out: Post-emergence effect against SETVI in %
Excerpt: (§1) • ALOMY: Alopecurus myosuroides SETVI: Setaria viridis • AVEFA: Avena fatua POLCO: Fallopia convolvulus • AMARE: Amaranthus retroflexus ECHCG: Echinochloa crus-galli • LOLRJ: Lolium rigidum STEME: Stellaria media • VERPE: Veronica persica MATIN: Tripleurospermum inodorum • DIGSA: Digitaria sanguinalis ABUTH: Abutylon threophrasti • TRZAS: Triticum aestivum VIOTR: Viola tricolor • BRSNW: Brassica napus ZEAMX: Zea mays • PHBPU: Ipomoea purpurea GLXMA: Glycine max • ORYSA: Oryza sativa HORMU: Hordeum murinum
(§2) Seeds of monocotyledonous and dicotyledonous weeds and crop plants are placed in sandy loam in plastic or organic planting pots, covered with soil and cultivated in a greenhouse under controlled growth conditions. 2 to 3 weeks after sowing, the trial plants are treated at the one-leaf stage. The compounds of the invention, formulated in the form of wettable powders (WP) or as emulsion concentrates (EC), are then sprayed onto the green parts of the plants as aqueous suspension or emulsion with addition of 0.5% additive at a water application rate of 600 l/ha (converted). After the test plants have been kept in the greenhouse under optimum growth conditions for about 3 weeks, the activity of the preparations is rated visually in comparison to untreated controls. For example, 100% activity=the plants have died, 0% activity=like control plants.
(§3) Tables 20a to 38c below show the effects/crop compatibilities of selected compounds of the general formula (I) on various harmful plants at an application rate corresponding to 20 to 320 g/ha, which were obtained by the trial procedure specified above.

PHBPU = type: in vivo, Ipomoea purpurea; details: for pest or weed control at 80 g/ha / pest or weed control at 20 g/ha / pest or weed control at 320 g/ha: Ipomoea purpurea, 504 h, read-out: Post-emergence effect against PHBPU in %
Excerpt: as §1, §2, §3

POLCO = type: in vivo, Fallopia convolvulus; details: Fallopia convolvulus, 504 h, read-out: Post-emergence effect against POLCO in %
Excerpt: as §1, §2, §3

AMARE = type: in vivo, Amaranthus retroflexus; details: visual rating about 3 weeks after treatment; for pest or weed control at 80 g/ha / pest or weed control at 320 g/ha: Amaranthus retroflexus, 504 h, read-out: Post-emergence effect against AMARE
Excerpt: as §1, §2, §3

AVEFA = type: in vivo, Avena fatua; details: visual rating about 3 weeks after treatment; for pest or weed control at 80 g/ha / pest or weed control at 320 g/ha: Avena fatua, 504 h, read-out: Post-emergence effect against AVEFA
Excerpt: as §1, §2, §3

VIOTR = type: in vivo, Viola tricolor; details: for pest or weed control at 20 g/ha / pest or weed control at 80 g/ha / pest or weed control at 320 g/ha: Viola tricolor, 504 h, read-out: Post-emergence effect against VIOTR in %
Excerpt: as §1, §2, §3

VERPE = type: in vivo, Veronica persica; details: for pest or weed control at 20 g/ha / pest or weed control at 80 g/ha / pest or weed control at 320 g/ha: Veronica persica, 504 h, read-out: Post-emergence effect against VERPE in %
Excerpt: as §1, §2, §3

ALOMY = type: in vivo, Alopecurus myosuroides; details: visual rating about 3 weeks after treatment; for pest or weed control at 80 g/ha / pest or weed control at 320 g/ha: Alopecurus myosuroides, 504 h, read-out: Post-emergence effect against ALOMY
Excerpt: as §1, §2, §3

LOLRI = type: in vivo, Lolium rigidum; details: Lolium rigidum, 504 h, read-out: Post-emergence effect against LOLRI in %
Excerpt: as §1, §2, §3

ECHCG = type: in vivo, Echinochloa crus-galli; details: for pest or weed control at 20 g/ha / pest or weed control at 80 g/ha / pest or weed control at 320 g/ha: Echinochloa crus-galli, 504 h; for pest or weed control at 20 g/ha: visual rating about 3 weeks after treatment, read-out: Post-emergence effect against ECHCG; for pest or weed control at 80 g/ha / pest or weed control at 320 g/ha: read-out: Post-emergence effect against ECHCG in %
Excerpt: as §1, §2, §3

MATIN = type: in vivo, Tripleurospermum inodorum; details: for pest or weed control at 20 g/ha / pest or weed control at 80 g/ha / pest or weed control at 320 g/ha: Tripleurospermum inodorum, 504 h, read-out: Post-emergence effect against MATIN in %
Excerpt: as §1, §2, §3

DIGSA = type: in vivo, Digitaria sanguinalis; details: visual rating about 3 weeks after treatment; for pest or weed control at 80 g/ha / pest or weed control at 320 g/ha: Digitaria sanguinalis, 504 h, read-out: Post-emergence effect against DIGSA
Excerpt: as §1, §2, §3

ABUTH = type: in vivo, Abutilon theophrasti; details: Abutilon theophrasti, 504 h, visual rating about 3 weeks after treatment, read-out: Post-emergence effect against ABUTH
Excerpt: as §1, §2, §3

Compound | pest or weed control at 80 g/ha (SETVI) [%] | pest or weed control at 80 g/ha (PHBPU) [%] | pest or weed control at 320 g/ha (POLCO) [%] | pest or weed control at 80 g/ha (AMARE) [%] | pest or weed control at 80 g/ha (AVEFA) [%] | pest or weed control at 20 g/ha (VIOTR) [%] | pest or weed control at 80 g/ha (VIOTR) [%] | pest or weed control at 20 g/ha (VERPE) [%] | pest or weed control at 320 g/ha (LOLRI) [%] | pest or weed control at 80 g/ha (ECHCG) [%] | pest or weed control at 20 g/ha (MATIN) [%] | pest or weed control at 80 g/ha (MATIN) [%] | pest or weed control at 80 g/ha (ABUTH) [%] | pest or weed control at 320 g/ha (ABUTH) [%] | pest or weed control at 320 g/ha (SETVI; 320 g/ha) [%] | pest or weed control at 320 g/ha (PHBPU; 320 g/ha) [%] | pest or weed control at 320 g/ha (AMARE; 320 g/ha) [%] | pest or weed control at 320 g/ha (AVEFA; 320 g/ha) [%] | pest or weed control at 320 g/ha (VIOTR; 320 g/ha) [%] | pest or weed control at 80 g/ha (VERPE; 80 g/ha) [%] | also measured
CCOC(=O)C(OC)Oc1nn(-c2ccccc2F)c(-c2ccc(F)nc2)c1Br (stereo not shown) [Example I-23] | 80 | 80 | 80 | 80 | 80 | 80 | 80 | 80 | 90 | 80 | 80 | 80 |  |  |  |  |  |  |  |  | Post-emergence effect against SETVI in % (SETVI; 320 g/ha): 90%; Post-emergence effect against PHBPU in % (PHBPU; 320 g/ha): 90%; Post-emergence effect against AMARE (AMARE; 320 g/ha): 90%; Post-emergence effect against AVEFA (AVEFA; 320 g/ha): 80%; Post-emergence effect against VIOTR in % (VIOTR; 320 g/ha): 80%; Post-emergence effect against VERPE in % (VERPE; 80 g/ha): 90%; Post-emergence effect against VERPE in % (VERPE; 320 g/ha): 90%; Post-emergence effect against ALOMY (ALOMY; 320 g/ha): 90%; pest or weed control at 80 g/ha (ALOMY): 90%; Post-emergence effect against ECHCG in % (ECHCG; 320 g/ha): 90%; pest or weed control at 20 g/ha (ECHCG): 80%; Post-emergence effect against MATIN in % (MATIN; 320 g/ha): 90%; Post-emergence effect against DIGSA (DIGSA; 320 g/ha): 90%; pest or weed control at 80 g/ha (DIGSA): 90%
COC(=O)C(OC)Oc1nn(-c2cc(F)ccc2F)c(-c2cncc(F)c2)c1Br (stereo not shown) [Example I-29] | 90 | 80 | 80 | 90 | 90 | 80 | 90 |  | 90 | 80 | 80 | 90 | 80 | 90 | 90 | 90 | 90 | 90 | 90 | 90 | pest or weed control at 20 g/ha (PHBPU): 80%; pest or weed control at 320 g/ha (VERPE; 320 g/ha): 90%; pest or weed control at 320 g/ha (ALOMY; 320 g/ha): 90%; pest or weed control at 320 g/ha (ECHCG; 320 g/ha): 90%; pest or weed control at 320 g/ha (MATIN; 320 g/ha): 90%; pest or weed control at 320 g/ha (DIGSA; 320 g/ha): 80%
COC(=O)C(OC)Oc1nn(-c2ccccc2)c(-c2ccc(F)nc2)c1Br (stereo not shown) [Example I-30] | 90 | 80 | 80 | 80 | 90 | 80 | 90 | 80 | 90 | 90 |  | 80 | 80 | 90 | 90 | 90 | 80 | 90 | 90 | 80 | pest or weed control at 20 g/ha (SETVI): 80%; pest or weed control at 80 g/ha (POLCO): 80%; pest or weed control at 320 g/ha (VERPE; 320 g/ha): 90%; pest or weed control at 320 g/ha (ALOMY; 320 g/ha): 90%; pest or weed control at 20 g/ha (ECHCG): 80%; pest or weed control at 320 g/ha (ECHCG; 320 g/ha): 90%; pest or weed control at 320 g/ha (MATIN; 320 g/ha): 90%; pest or weed control at 80 g/ha (DIGSA): 90%; pest or weed control at 320 g/ha (DIGSA; 320 g/ha): 90%
CCOC(=O)C(OC)Oc1nn(-c2cc(F)ccc2F)c(-c2cncc(F)c2)c1C1CC1 (stereo not shown) [Example I-37] | 90 | 90 | 90 | 90 | 80 | 80 | 90 | 90 | 100 | 100 | 80 | 90 | 90 | 90 | 90 | 90 | 90 | 90 | 90 | 100 | pest or weed control at 20 g/ha (ABUTH; 20 g/ha): 80%; pest or weed control at 20 g/ha (PHBPU): 90%; pest or weed control at 80 g/ha (POLCO): 90%; pest or weed control at 320 g/ha (VERPE; 320 g/ha): 100%; pest or weed control at 80 g/ha (ALOMY): 100%; pest or weed control at 320 g/ha (ALOMY; 320 g/ha): 100%; pest or weed control at 80 g/ha (LOLRI): 90%; pest or weed control at 320 g/ha (ECHCG; 320 g/ha): 100%; pest or weed control at 320 g/ha (MATIN; 320 g/ha): 90%; pest or weed control at 320 g/ha (DIGSA; 320 g/ha): 90%
COC(=O)C(OC)Oc1nn(-c2cc(F)ccc2F)c(-c2cncc(F)c2)c1C1CC1 (stereo not shown) [Example I-111] | 80 | 90 | 80 | 80 | 90 |  | 80 | 80 | 90 | 90 | 80 | 80 | 80 | 90 | 80 | 90 | 80 | 90 | 80 | 80 | pest or weed control at 20 g/ha (SETVI): 80%; pest or weed control at 20 g/ha (PHBPU): 80%; pest or weed control at 80 g/ha (POLCO): 80%; pest or weed control at 320 g/ha (VERPE; 320 g/ha): 80%; pest or weed control at 80 g/ha (ALOMY): 80%; pest or weed control at 320 g/ha (ALOMY; 320 g/ha): 90%; pest or weed control at 80 g/ha (LOLRI): 90%; pest or weed control at 20 g/ha (ECHCG): 80%; pest or weed control at 320 g/ha (ECHCG; 320 g/ha): 90%; pest or weed control at 320 g/ha (MATIN; 320 g/ha): 80%; pest or weed control at 320 g/ha (DIGSA; 320 g/ha): 80%
